{
  "source": "patent US20230392180A1",
  "about": "“MICROSCOPIC IMAGING AND ANALYSES OF EPIGENETIC LANDSCAPE” (Sanford Burnham Prebys Medical Discovery Institute, priority 2020, published 2023)",
  "key": {"[1]": {"settings": "female, human"}, "C57BL/6J male mice": {"tested_on": "C57BL/6J male mice", "assay": "miBioAge (MIEL-CLOCK) after doxorubicin injection", "format": "in vivo", "description": "This can be shown by employing classical treatments such as doxorubicin (DOX), paclitaxel (PTX), or temozolomide (TMZ), known to promote hallmarks of aging to compare miBioAge readouts in blood (PBMC and CD3+ cells) and liver hepatocytes to chronologically matched untreated controls. Blood was collected on day 0 (retro-orbital) from 3-month old C57BL/6J male mice and 22-month old C57BL/6J male mice. On day 1, doxorubicin was injected into the experimental mice. All controls received PBS injection. Blood was collected on day 20 (retro-orbital) from all mice and liver hepatocytes on day 21. Cells were analyzed 21 days after treatment to avoid the effects of acute stress response and favor the aging-related phenomena."}, "[2]": {"assay": "Variance of chromatin and epigenetic landscape (VITA) score", "format": "in vivo, mice", "settings": "after treatment", "quoted_text": "In some instances, in addition to computing the values of individual cell nucelli in multidimensional space of statistical texture features, coefficient of variance (CV) is used, defined as the ratio of the standard deviation a sigma to the mean p, namely. CV for each field of view, well, technical replicate, and biological replicate such organs tissues and cells from individual mice could be computed based on individual nuclei and the results are stable using 200-2000 nuclei per experimental replica (e.g., individual wells). […] This means that quantitatively CV can be informative values serving as a quantitative measurement of individual organ, tissue, or cell type from individual animals."}, "GBM2 cells [3]": {"tested_on": "GBM2 cells", "assay": "RNAseq and transcriptomic analysis", "format": "cell-based, human", "description": "RNAseq and transcriptomic analysis: Total RNA was isolated from GBM2 cells using the RNeasy Kit (Qiagen), 0.5 ug total RNA was used for isolation of mRNAs and library preparation. Library preparation and sequencing was conducted by the SBP genomics core (Sanford-Burnham NCI Cancer Center Support Grant P30 CA030199). PolyA RNA was isolated using the NEBNext® Poly(A) mRNA Magnetic Isolation Module and barcoded libraries were made using the NEBNext® Ultra II™ Directional RNA Library Prep Kit for Illumina® (NEB, Ipswich MA). Libraries were pooled and single end sequenced (1X75) on the Illumina NextSeq 500 using the High output V2 kit (Illumina). Read data was processed in BaseSpace. Reads were aligned to Homo sapiens genome (hg19) using STAR aligner with default settings. Differential transcript expression was determined using the Cufflinks Cuffdiff package. Go term enrichment analysis was conducted using PANTHER v11 using all genes identified as differentially expressed following either serum or Bmp4 treatment. For heat maps showing fold change in expression the FPKM values in each population were divided by the average FPKM values of untreated GBM2. To highlight differences in expression levels between serum and Bmp4 treated GBM2 cells the FPKM values in each sample were z-scored. Zscore=(FPKMObservation−FPKMAverage)/FPKMSD (FPKMObservation−FPKM value obtain through sequencing; FPKMAverage−average of all FPKM values in all samples for a certain gene; FPKMSD−standard deviation of FPKM values for a certain gene). Heat maps were generated using Microsoft Excel conditional formatting function.\nCorrelation of transcriptomic and image-based profiles: Euclidean distance between untreated, serum or Bmp4 treated GBM2 cells (triplicates for each) was calculated using either transcriptomic data (FPKM) or texture features. Pearson's correlation coefficient (R) was transformed to a t-value using the formula (t=R×SQRT(N−2)/SQRT(1−R2) where N is the number of samples, and R is Pearson correlation coefficient, and the p-value was calculated using Excel tdist(t) function. For compound prioritization, the Euclidean distance between compound treated and serum or Bmp4 treated GBM2 cells was calculated based on either transcriptomic data (FPKM) or image features. The average distance to both serum and Bmp4 treatments was normalized to the average distance of untreated cells to serum and Bmp4.\nRNAseq and transcriptomic analysis: Total RNA was isolated from GBM2 cells using the RNeasy Kit (Qiagen), 0.25 μg total RNA was used to isolate mRNAs and for library preparation. Library preparation and sequencing were conducted by the SBP genomics core (Sanford-Burnham NCI Cancer Center Support Grant P30 CA030199). PolyA RNA was isolated using the NEBNext® Poly(A) mRNA Magnetic Isolation Module, and barcoded libraries were made using the NEBNext® Ultra II™ Directional RNA Library Prep Kit for Illumina® (NEB, Ipswich MA). Libraries were pooled and single-end sequenced (1×75) on the Illumina NextSeq 500 using the High-Output V2 kit (Illumina). Read data, processed in BaseSpace, were aligned to Homo sapiens genome (hg19) using STAR aligner with default settings. Differential transcript expression was determined using the Cufflinks Cuffdiff package. For heat maps showing fold change in expression, FPKM values in each HDACi-treated population were divided by the average FPKM values of DMSO-treated GBM2 and values shown as log 2 of the ratio. Go enrichment analysis was conducted using PANTHER v11 using all genes identified as differentially expressed following either serum or Bmp4 treatment. To highlight differences in expression levels between serum- and Bmp4-treated GBM2 cells, FPKM values in each sample were z-scored. Zscore=(FPKMObservation−FPKMAverage)/FPKMSD (FPKMObservation−FPKM value obtain through sequencing; FPKMAverage−average of all FPKM values in all samples for a certain gene; FPKMSD−standard deviation of FPKM values for a certain gene). […]"}, "H3K27ac and H3K27me3": {"tested_on": "H3K27ac and H3K27me3", "assay": "H3K27ac and H3K27me3 immunofluorescence intensity", "format": "cell-based, human", "settings": "GBM2, low concentrations (<30 μM), compared with Pan HDAC inhibitors TSA, SAHA"}, "GBM2 cells [4]": {"tested_on": "GBM2 cells", "assay": "Epigenetic Drug Screening (MIEL)", "format": "cell-based, human", "excerpt": "Data processing: The image features-based profile for each cell population (e.g., cell types, treatments, technical repetition) was represented using a vector (center of distribution vectors) in which every element is the average value of all cells in that population for a particular feature. The vector's length is given by the number of features chosen (262 per histone modification). Raw feature values were normalized by z-scoring to the average and standard deviation of all populations being compared. All cells in each population were used to calculate center vectors, and each population contained at least 50 cells. Activity level for each drug was determined by calculating the distance from DMSO. […] Euclidean distance of each compound and each DMSO replicate to the DMSO center vector was calculated. Distances were z-scored to the average distance and standard deviation of DMSO replicates from the DMSO center vector. Transcriptomic-based profile for each cell population was represented using a vector in which every element is the z-scored FPKM value for a single gene in that population. […] Raw feature values for all center vectors of all populations in each plate were normalized to the plate-wise DMSO vector; normalized feature values were z-scored as above. […] Activity levels were calculated as above. […] Cell counts were z-scored against the average and standard deviation of all DMSO replicates. […]"}, "TPCs": {"tested_on": "TPCs", "assay": "Growth rate of treated glioblastoma cells", "settings": "3 days of serum or Bmp4 treatment"}, "GBM cell lines": {"tested_on": "GBM cell lines", "assay": "Immunostaining of core transcription factors and GFAP after serum or Bmp4 treatment", "format": "cell-based, human", "description": "Differentiation treatment: For TPC differentiation treatments cells were cultured in DMEM:F12 Neurobasal media (1:1), 1% B27 supplement, 10% BIT 9500, 1 mM glutamine supplemented with either Bmp4 (100 ng/ml; R&D Systems) or FBS (10%).\nCell staining: Cells were rinsed with PBS and fixed in 4% paraformaldehyde in PBS for 10 min at room temperature. After blocking with PBSAT (2% BSA and 0.5% Triton X-100 in PBS) for 1 h at room temperature, the cells were incubated overnight at 4° C. with primary antibodies diluted in PBSAT. The primary antibodies are listed in Table 2, and the appropriate fluorochrome-conjugated secondary antibodies were used at 1:500 dilution. Nuclear co-staining was performed by incubating cells with Hoechst-33342 nuclear dye.\nMicroscopy and image analysis: Unless stated otherwise, for MIEL analysis cells were imaged on an Opera QEHS high-content screening system (PerkinElmer) using ×40 water immersion objectives. Images collected on the Opera were analyzed using Acapella 2.6 (PerkinElmer). […] Features of nuclear morphology, fluorescence intensity inter-channel co-localization, and texture features (Image moments, Haralick, Threshold Adjacency Statistics) were calculated using custom algorithms (scripts available from www.andrewslab.ca). […] Between 3 and 8 fields per well were acquired and analyzed using Acapella 2.6 (PerkinElmer). […]"}},
  "note": "“Also recorded” adds a separate entry of the source.",
  "data": [
    {"compound": "CC(=O)S[C@@H]1CC2=CC(=O)CC[C@]2(C)[C@H]2CC[C@@]3(C)[C@@H](CC[C@@]34CCC(=O)O4)[C@H]12", "note": "[spironolactone]", "values": [
      {"measurement": "estimated concentrations reached following repeated administration", "setting": "[1]", "value": "~10", "unit": "µM"}
    ]},
    {"compound": "COc1cccc2c1C(=O)c1c(O)c3c(c(O)c1C2=O)C[C@@](O)(C(=O)CO)C[C@@H]3O[C@H]1C[C@H](N)[C@H](O)[C@H](C)O1", "note": "[DOX, doxorubicin]", "values": [
      {"measurement": "miBioAge distance", "setting": "C57BL/6J male mice; 3-month, compared to 3-month control", "value": "increases"},
      {"measurement": "miBioAge signatures in CD3+ cells", "setting": "C57BL/6J male mice; blood collected on day 20", "value": "trend shift"},
      {"measurement": "miBioAge signatures in PBMC", "setting": "C57BL/6J male mice; blood collected on day 20", "value": "trend shift"},
      {"measurement": "miBioAge signatures in liver hepatocytes", "setting": "C57BL/6J male mice; cells analyzed 21 days after treatment", "value": "towards the old age"},
      {"measurement": "VITA score", "setting": "[2]", "value": "trend for the increase; also recorded: increases"}
    ]},
    {"compound": "Oc1ccc(O)cc1", "note": "[Hydroquinone]", "values": [
      {"measurement": "estimated concentrations reached following repeated administration", "setting": "[1]", "value": "~10", "unit": "µM"}
    ]},
    {"compound": "CCCC(CCC)C(=O)O", "note": "[valproic acid]", "values": [
      {"measurement": "transcriptomic changes (genes altered vs DMSO)", "setting": "GBM2 cells [3]; GBM2, 24 hours, valproic acid 15 μM", "value": "not reflected"},
      {"measurement": "H3K27ac and H3K27me3 immunofluorescence intensity", "setting": "H3K27ac and H3K27me3", "value": "no increase in histone acetylation or decrease in histone methylation"},
      {"measurement": "functional classification by discriminant analysis (MIEL)", "setting": "GBM2 cells [4]; 10 μM, 24 hours, 85 compounds", "value": "active but were misclassified"},
      {"measurement": "epigenetic changes detected by MIEL", "setting": "GBM2 cells [4]; 24-hour treatment, low concentrations (<30 μM)", "value": "detectable epigenetic changes"}
    ]},
    {"compound": "Bmp4: Bmp4 (100 ng/ml; R&D Systems), positive control inducing TPC differentiation", "values": [
      {"measurement": "expression of most genes of the transcriptomic stemness signature", "setting": "GBM2 cells [3]; GBM2, 3 days treatment, vs untreated cells", "value": "reduced"},
      {"measurement": "growth rate of TPCs", "setting": "TPCs", "value": "reduced; also recorded: attenuate"},
      {"measurement": "GFAP expression", "setting": "GBM cell lines", "value": "increased"},
      {"measurement": "expression of transcription factors Sox2, Sall2, Brn2 and Olig2", "setting": "GBM cell lines; 3 days treatment, cell line dependent", "value": "down regulated; also recorded: downregulated"}
    ]}
  ]
}
